Data: patent US11040976B2, “Substrate selective inhibitors of insulin-degrading enzyme (IDE) and uses thereof” (President and Fellows of Harvard College, priority 2015, dated 2021)

Biological target: T1, recombinant human IDE42-1019 (Homo sapiens, UniProt P14735)
T1 construct: recombinant human IDE42-1019 (R&D Systems); purchased R&D Systems
T1 sequence (P14735 42-1019): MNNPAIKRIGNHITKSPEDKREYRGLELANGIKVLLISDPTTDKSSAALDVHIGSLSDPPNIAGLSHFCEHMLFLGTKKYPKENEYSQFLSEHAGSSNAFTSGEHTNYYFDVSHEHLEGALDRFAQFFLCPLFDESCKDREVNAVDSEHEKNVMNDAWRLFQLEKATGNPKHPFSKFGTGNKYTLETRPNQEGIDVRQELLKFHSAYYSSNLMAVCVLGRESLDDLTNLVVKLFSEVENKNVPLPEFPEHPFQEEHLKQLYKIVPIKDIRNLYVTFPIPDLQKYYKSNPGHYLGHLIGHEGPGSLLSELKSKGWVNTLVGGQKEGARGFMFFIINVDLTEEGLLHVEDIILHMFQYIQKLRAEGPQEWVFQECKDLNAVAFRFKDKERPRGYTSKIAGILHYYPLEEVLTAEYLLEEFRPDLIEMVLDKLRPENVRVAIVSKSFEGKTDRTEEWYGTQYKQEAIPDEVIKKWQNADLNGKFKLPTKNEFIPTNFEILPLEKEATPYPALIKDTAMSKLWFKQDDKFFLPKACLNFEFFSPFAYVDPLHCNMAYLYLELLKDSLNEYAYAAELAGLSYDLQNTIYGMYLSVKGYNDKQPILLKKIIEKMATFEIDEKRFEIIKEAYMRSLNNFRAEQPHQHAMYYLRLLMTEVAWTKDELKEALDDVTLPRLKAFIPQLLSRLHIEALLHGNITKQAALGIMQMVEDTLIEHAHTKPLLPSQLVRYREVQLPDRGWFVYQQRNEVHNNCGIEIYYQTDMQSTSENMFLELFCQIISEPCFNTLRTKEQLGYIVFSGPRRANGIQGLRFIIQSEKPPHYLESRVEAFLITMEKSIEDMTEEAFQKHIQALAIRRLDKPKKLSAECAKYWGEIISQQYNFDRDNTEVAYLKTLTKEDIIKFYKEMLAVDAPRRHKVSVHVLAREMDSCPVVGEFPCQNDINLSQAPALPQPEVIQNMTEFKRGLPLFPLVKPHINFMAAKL
Assay: Protease assay with fluorogenic peptide substrate Mca-[…](Dnp)-OH
Assay type: biochemical
Conditions: fluorogenic peptide Mca-RPPGFSAFK(Dnp)-OH; apparent IC50 for compounds with submaximal inhibition; read-out: IC50 (μM) Proteolysis
Method: The proteases IDE42-1019, recombinant human IDE42-1019 (R&D Systems), neprilysin (R&D), and angiotensin-converting enzyme (R&D) were assayed using the fluorophore/quencher-tagged peptide substrate Mca-[…](Dnp)-OH (SEQ ID NO: 24) (R&D) according to the manufacturer's instructions and using the recommended buffers (fluorophore Mca=(7-methoxycourmarin-4-yl)acetyl and quencher Dnp=2,4-dinitrophenyl). For IDE the recommended buffer is 50 mM Tris pH 7.5, 1 M NaCl. The enzyme mixtures (48 μL) were transferred to a 96-well plate and combined with 2 μL of inhibitor in DMSO solutions, in 3-fold dilution series. The mixtures were allowed to equilibrate for 10 minutes and the enzymatic reaction was started by addition of substrate peptide in assay buffer (50 μL), mixed, and monitored on a fluorescence plate reader (excitation at 320 nm, emission at 405 nm). Similarly, thimet oligopeptidase (R&D) and neurolysin (R&D) were assayed using substrate Mca-PLGPK(Dnp)-OH (SEQ ID NO: 25) (R&D) according to the manufacturer's instructions and using the recommended buffers. Matrix metalloproteinase-1 (R&D) was activated and assayed according to the manufacturer's instructions with substrate Mca-KPLGL-Dpa-AR-NH2 (SEQ ID NO: 20) (R&D) (quencher DPA=N-3-(2,4,dinitrophenyl)-L-2,3-diaminopropionyl). All assay data points were obtained in duplicate.

Compound | IC50 [µM]
Cc1cccc(-c2ccc([C@H]3C4CN(S(=O)(=O)c5cnc6n5CCCCC6)C/C=C\CN4[C@@H]3CO)cc2)c1C (some centres unmarked) [JP-S17] | 0.09
COC[C@@H]1[C@@H](c2ccc(-c3cccc(C)c3C)cc2)C2CN(S(=O)(=O)c3cnc(C)n3C)C/C=C\CN21 (some centres unmarked) [JP-S18-OMe] | 0.02
Cc1cccc(-c2ccc([C@H]3C4CN(S(=O)(=O)c5cnc(C)n5C)C/C=C\CN4[C@@H]3CO)cc2)c1C (some centres unmarked) [JP-S18] | 0.002
CCn1ncc(S(=O)(=O)N2C/C=C\CN3C(C2)[C@H](c2ccc(-c4cccc(C)c4C)cc2)[C@H]3CO)c1C (some centres unmarked) [JP-S19] | 0.09
Cc1cccc(-c2ccc([C@H]3C4CN(S(=O)(=O)c5cn(C)nc5C(F)(F)F)C/C=C\CN4[C@@H]3CO)cc2)c1C (some centres unmarked) [JP-S20] | 0.03
COC[C@@H]1[C@@H](c2ccc(-c3cccc(C)c3C)cc2)[C@@H]2CN(S(=O)(=O)c3ccc[n+](C)c3C)CCCCN12 [JP-S21-diMe] | > 0.2
Cc1cccc(-c2ccc([C@H]3C4CN(S(=O)(=O)c5cccnc5C)C/C=C\CN4[C@@H]3CO)cc2)c1C (some centres unmarked) [JP-S21] | 0.02
Cc1cccc(-c2ccc([C@@H]3[C@@H](CO)N4CCCCN(S(=O)(=O)N5CCN(C)CC5)C[C@@H]34)cc2)c1C [JP-S22] | 0.03
Cc1cccc(-c2ccc([C@@H]3[C@@H](CO)N4CCCCN(S(=O)(=O)c5nccn5C)C[C@@H]34)cc2)c1C [JP-S23] | 0.0006
Cc1cccc(-c2ccc([C@@H]3[C@@H](CO)N4CCCCN(S(=O)(=O)c5ccnn5C)C[C@@H]34)cc2)c1C [JP-S24] | 0.01
Cc1cc(S(=O)(=O)N2CCCCN3[C@H](CO)[C@@H](c4ccc(-c5cccc(C)c5C)cc4)[C@@H]3C2)n(C)n1 [JP-S25] | 0.02
COC(=O)c1ccc(S(=O)(=O)N2CCCCN3C(C2)[C@H](c2ccc(-c4cccc(C)c4C)cc2)[C@H]3CO)n1C (some centres unmarked) [JP-S27] | > 5
Cc1ccccc1S(=O)(=O)N1CCCCN2[C@H](CO)[C@@H](c3ccccc3)[C@@H]2C1 [K2] | > 100
COc1cccc(-c2ccc([C@@H]3[C@@H](CO)N4CCCCN(S(=O)(=O)c5ccccc5C)C[C@@H]34)cc2)c1 [K3] | 0.4
Cc1ccccc1S(=O)(=O)N1CCCCN2[C@H](CO)[C@@H](c3ccc(-c4ccc5c(c4)OCO5)cc3)[C@@H]2C1 [K5] | 2.5
Cc1ccccc1S(=O)(=O)N1CCCCN2[C@H](CO)[C@@H](c3ccc(-c4cccc(C)c4C)cc3)[C@@H]2C1 [K9] | 0.002
Cc1cc(C)cc(-c2ccc([C@@H]3[C@@H](CO)N4CCCCN(S(=O)(=O)c5ccccc5C)C[C@@H]34)cc2)c1 [K10] | 0.1
Cc1ccccc1S(=O)(=O)N1CCCCN2[C@H](CO)[C@@H](c3ccc(-c4cccc(F)c4)cc3)[C@@H]2C1 [K11] | 2.5
Cc1ccc(C)c(-c2ccc([C@@H]3[C@@H](CO)N4CCCCN(S(=O)(=O)c5ccccc5C)C[C@@H]34)cc2)c1 [K13] | 0.09

Compound | IC50 [µM]
COc1ccccc1-c1ccc([C@H]2C3CN(S(=O)(=O)c4ccccc4C)CCCCN3[C@@H]2CO)cc1 (some centres unmarked) [K14] | 0.3
Cc1ccccc1S(=O)(=O)N1CCCCN2[C@H](CO)[C@@H](c3ccc(-c4cccc(F)c4F)cc3)[C@@H]2C1 [K15] | 0.8
COc1ccc(C)cc1-c1ccc([C@@H]2[C@@H](CO)N3CCCCN(S(=O)(=O)c4ccccc4C)C[C@@H]23)cc1 [K16] | 0.8
COc1ccc(-c2ccc([C@@H]3[C@@H](CO)N4CCCCN(S(=O)(=O)c5ccccc5C)C[C@@H]34)cc2)c(C)c1 [K17] | 0.9
Cc1c(-c2ccc([C@@H]3[C@@H](CO)N4CCCCN(S(=O)(=O)c5ccccc5C(F)(F)F)C[C@@H]34)cc2)cccc1C(F)(F)F [K19] | 0.1
Cc1ccccc1S(=O)(=O)N1CCCCN2[C@H](CO)[C@@H](c3ccc(-c4cccc(F)c4C)cc3)[C@@H]2C1 [K20] | 0.1
O=S(=O)(c1ccccc1C(F)(F)F)N1C/C=C\CN2C(C1)[C@H](c1ccc(-c3cccc(Cl)c3Cl)cc1)[C@H]2CO (some centres unmarked) [K21] | 0.008
Cc1c(Cl)cccc1-c1ccc([C@H]2C3CN(S(=O)(=O)c4ccccc4C(F)(F)F)C/C=C\CN3[C@@H]2CO)cc1 (some centres unmarked) [K22] | 0.01
Cc1ccccc1S(=O)(=O)N1CCCCN2[C@H](CO)[C@@H](c3ccc(-c4cccc(F)c4C(F)(F)F)cc3)[C@@H]2C1 [K23] | 0.3
Cc1ccccc1S(=O)(=O)N1CCCCN2[C@H](CO)[C@@H](c3ccc(-c4ccc(F)c(F)c4C)cc3)[C@@H]2C1 [K24] | 0.3
Cc1ccccc1S(=O)(=O)N1CCCCN2[C@H](CO)[C@@H](c3ccc(-c4cnc(F)c(C)c4)cc3)[C@@H]2C1 [K26] | 4
Cc1ccccc1S(=O)(=O)N1CCCCN2[C@H](CF)[C@@H](c3ccc(-c4cccc(C)c4C)cc3)[C@@H]2C1 [K28] | 0.05
Cc1cccc(-c2ccc([C@H]3C4CN(S(=O)(=O)c5ccccc5C)CCCCN4[C@@H]3CN)cc2)c1 (some centres unmarked) [K29] | 0.25
Cc1cccc(-c2ccc([C@H]3[C@H](CO)N4C(=O)CN(C(=O)NC5CCCCC5)C[C@@H]34)cc2)c1 [compound 130] | > 5
CCCNC(=O)N1CC(=O)N2[C@@H](CO)[C@H](c3ccc(-c4cccc(C)c4)cc3)[C@@H]2C1 [compound 231] | 2.5
Cc1cccc(-c2ccc([C@@H]3[C@@H](CO)N4CCCCN(C(=O)c5ccc6c(c5)OCO6)C[C@@H]34)cc2)c1 [compound 291] | > 200
COC[C@H]1[C@H](c2ccc(C#Cc3ccccc3F)cc2)[C@@H]2CN(C(=O)NC(C)C)CCCCN12 [compound 304] | 2
O=C(NC1CCCC1)N1CCCCN2[C@@H](CO)[C@H](c3ccc(/C=C/c4ccccc4)cc3)[C@@H]2C1 [compound 346] | 1.5

Same assay, conditions: fluorogenic peptide Mca-RPPGFSAFK(Dnp)-OH; plateau at high inhibitor concentration; read-out: Imax (%) Proteolysis (inhibition maximum)

Compound | Emax [%]
COc1cccc(-c2ccc([C@H]3C4CN(S(=O)(=O)c5ccccc5C)CCCCN4[C@@H]3CO)cc2)c1 (some centres unmarked) [K3] | 65
Cc1ccc(-c2ccc([C@H]3C4CN(S(=O)(=O)c5ccccc5C)CCCCN4[C@@H]3CO)cc2)cc1C (some centres unmarked) [K4] | 72
Cc1ccccc1S(=O)(=O)N1CCCCN2C(C1)[C@H](c1ccc(-c3ccc4c(c3)OCO4)cc1)[C@H]2CO (some centres unmarked) [K5] | 100
Cc1ccccc1S(=O)(=O)N1CCCCN2C(C1)[C@H](c1ccc(-c3ccccc3)cc1)[C@H]2CO (some centres unmarked) [K7] | 65
Cc1ccccc1S(=O)(=O)N1CCCCN2C(C1)[C@H](c1ccc(-c3cccc(O)c3)cc1)[C@H]2CO (some centres unmarked) [K8] | 100
Cc1ccccc1S(=O)(=O)N1CCCCN2C(C1)[C@H](c1ccc(-c3cccc(C)c3C)cc1)[C@H]2CO (some centres unmarked) [K9] | 65
Cc1cc(C)cc(-c2ccc([C@H]3C4CN(S(=O)(=O)c5ccccc5C)CCCCN4[C@@H]3CO)cc2)c1 (some centres unmarked) [K10] | 72
Cc1ccccc1S(=O)(=O)N1CCCCN2C(C1)[C@H](c1ccc(-c3cccc(F)c3)cc1)[C@H]2CO (some centres unmarked) [K11] | 65
Cc1ccccc1-c1ccc([C@H]2C3CN(S(=O)(=O)c4ccccc4C)CCCCN3[C@@H]2CO)cc1 (some centres unmarked) [K12] | 65
Cc1ccc(C)c(-c2ccc([C@H]3C4CN(S(=O)(=O)c5ccccc5C)CCCCN4[C@@H]3CO)cc2)c1 (some centres unmarked) [K13] | 65
COc1ccccc1-c1ccc([C@H]2C3CN(S(=O)(=O)c4ccccc4C)CCCCN3[C@@H]2CO)cc1 (some centres unmarked) [K14] | 65
Cc1ccccc1S(=O)(=O)N1CCCCN2C(C1)[C@H](c1ccc(-c3cccc(F)c3F)cc1)[C@H]2CO (some centres unmarked) [K15] | 90
Cc1ccccc1S(=O)(=O)N1CCCCN2C(C1)[C@H](c1ccc(-c3cnc(F)c(C)c3)cc1)[C@H]2CO (some centres unmarked) [K26] | 100
Cc1cccc(-c2ccc([C@H]3[C@H](CO)N4C(=O)CN(C(=O)NC5CCCCC5)C[C@@H]34)cc2)c1 [compound 130] | 60
CCCNC(=O)N1CC(=O)N2[C@@H](CO)[C@H](c3ccc(-c4cccc(C)c4)cc3)[C@@H]2C1 [compound 231] | 60
COC[C@H]1[C@H](c2ccc(C#Cc3ccccc3F)cc2)[C@@H]2CN(C(=O)NC(C)C)CCCCN12 [compound 304] | 80
O=C(NC1CCCC1)N1CCCCN2[C@@H](CO)[C@H](c3ccc(/C=C/c4ccccc4)cc3)[C@@H]2C1 [compound 346] | 80
Cc1ccccc1-c1ccc([C@@H]2[C@H](CO)N3CCCCN(C(=O)Cc4ccccn4)C[C@@H]23)cc1 [compound 469] | 80
Cc1ccccc1-c1ccc([C@H]2[C@H]3CN(C(=O)NC4CCCC4)CC(=O)N3[C@H]2CO)cc1 [compound 612] | 50
